One test relates to Daoy. In words: Cytotoxicity against human DaOY cells after 3 days by MTT assay. To be noted: 72 h, read-out: ED50 (the source's name). In kind it is functional.
Another test has as its system HEp-2. In words: Cytotoxicity against human Hep2 cells after 3 days by MTT assay. In kind it is functional. The conditions noted are these: HEp-2, 72 h, read-out: ED50 (the source's name). A general note: Tetrazolium dyes change colour on reduction, which living cells bring about.
A further test concerns MCF7. Nature of the test: Cytotoxicity against human MCF7 cells after 3 days by MTT assay. In kind it is functional. To be noted: MCF7, 72 h, read-out: ED50 (the source's name).
The test system of the next test is HeLa. In words: Cytotoxicity against human HeLa cells after 3 days by MTT assay. To be noted: 72 h, read-out: ED50 (the source's name). In kind it is functional.
Test [1] can be described thus: Inhibition of NOX in fMLP-induced PMN cells assessed as ROS production.
For test [2], the target named is T1, Nitric oxide synthase, inducible (Mus musculus, UniProt P29477).
T1 sequence (P29477 whole entry): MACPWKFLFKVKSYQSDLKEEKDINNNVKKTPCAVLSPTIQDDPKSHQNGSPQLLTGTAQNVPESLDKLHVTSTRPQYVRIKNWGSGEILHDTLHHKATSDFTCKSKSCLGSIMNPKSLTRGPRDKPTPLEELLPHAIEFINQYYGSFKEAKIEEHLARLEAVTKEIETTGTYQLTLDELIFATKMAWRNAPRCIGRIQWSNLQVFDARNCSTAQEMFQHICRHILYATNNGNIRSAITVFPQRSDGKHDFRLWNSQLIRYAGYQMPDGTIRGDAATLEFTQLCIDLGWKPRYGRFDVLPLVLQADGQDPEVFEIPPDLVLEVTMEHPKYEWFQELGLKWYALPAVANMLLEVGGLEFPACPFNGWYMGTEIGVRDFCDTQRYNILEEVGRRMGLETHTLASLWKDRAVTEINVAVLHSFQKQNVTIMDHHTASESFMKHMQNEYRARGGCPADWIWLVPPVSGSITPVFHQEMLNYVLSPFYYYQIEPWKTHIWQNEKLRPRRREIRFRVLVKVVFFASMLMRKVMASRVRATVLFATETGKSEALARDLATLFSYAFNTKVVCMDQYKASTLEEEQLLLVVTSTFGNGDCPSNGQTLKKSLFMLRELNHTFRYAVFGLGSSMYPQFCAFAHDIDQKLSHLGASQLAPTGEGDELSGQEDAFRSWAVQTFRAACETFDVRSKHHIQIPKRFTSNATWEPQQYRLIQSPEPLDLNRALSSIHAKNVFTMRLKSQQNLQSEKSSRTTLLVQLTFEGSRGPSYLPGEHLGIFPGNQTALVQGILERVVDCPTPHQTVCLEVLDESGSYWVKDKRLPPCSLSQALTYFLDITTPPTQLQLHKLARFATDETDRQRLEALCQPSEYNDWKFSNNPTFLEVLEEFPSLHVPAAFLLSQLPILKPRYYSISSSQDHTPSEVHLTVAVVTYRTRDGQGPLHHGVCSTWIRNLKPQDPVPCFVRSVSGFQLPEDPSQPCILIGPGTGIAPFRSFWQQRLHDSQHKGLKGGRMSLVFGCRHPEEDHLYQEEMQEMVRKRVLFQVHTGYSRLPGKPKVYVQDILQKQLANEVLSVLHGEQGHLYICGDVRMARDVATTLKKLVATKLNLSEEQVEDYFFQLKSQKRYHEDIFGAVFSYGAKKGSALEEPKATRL
Nature of the test: Inhibition of iNOS in mouse BV2 microglial cells assessed as NO production. In kind it is cell-based.

Test [3] is described as follows: Inhibition of mouse NOX activity in NADPH-induced mouse BV2 microglial cells assessed as ROS production. The conditions noted are these: BV-2.

Molecules are shown by their SMILES. ≈ marks a conversion by molar mass, not a printed value.

The IC50 is the concentration needed to halve the response being measured.

For `COc1cc(C)c(OC)c2c1OCO2`, the EC50 in the test on Daoy, in the test on HEp-2, in the test with MCF7 and in the test on HeLa was > 20 µg/mL each time. Further, the IC50 in test [1] was 19.9 µM.
`COc1c(C)c(-c2c(C)c(OC)c3c(c2OC)OCO3)c(OC)c2c1OCO2`: the EC50 in the test with Daoy, in the test with HEp-2, in the test with MCF7 and in the test on HeLa was > 20 µg/mL each time. The IC50 in test [1] was 15.5 µM.
Take `OC1O[C@@H](c2ccc3c(c2)OCO3)[C@@H]2CO[C@@H](c3ccc4c(c3)OCO4)[C@H]12` (stereo not given in full) [4-HYDROXYSESAMIN]: the EC50 in the test on Daoy, in the test with HEp-2, in the test on MCF7 and in the test with HeLa was > 20 µg/mL in each case.
Take `C=C(CC[C@@H](C)[C@H]1CC[C@H]2C3=C(C(=O)C[C@]12C)[C@@]1(C)CCC(=O)[C@@H](C)[C@@H]1CC3)C(C)C(=O)O` (stereo not given in full) [ANTCIN A]: the EC50 was 13.2 µg/mL (≈ 29 µM) in the test with Daoy, > 20 µg/mL in the test on HEp-2, 13.3 µg/mL (≈ 29.3 µM) in the test with MCF7 and > 20 µg/mL with HeLa. The values for the IC50 in test [2] and in test [1] were 4.1 µM and 29.2 µM, respectively.
On to `C=C(CC[C@@H](C)[C@H]1CC[C@H]2C3=C(C(=O)C[C@]12C)[C@@]1(C)CC[C@@H](O)[C@](C)(O)[C@@H]1C[C@@H]3O)C(C)C(=O)O` (stereo not given in full) [ANTCIN K], for which the EC50 in the test on Daoy, in the test with HEp-2, with MCF7 and with HeLa was > 20 µg/mL each time. Further, the IC50 in test [1] stood at 47.2 µM.
Turning to `C=C(C)C#Cc1c(OC)cc(OC)c(OC)c1C` [ANTROCAMPHIN A], the EC50 in the test on Daoy was 5.9 µg/mL (≈ 24 µM); in the test on HEp-2, 10.5 µg/mL (≈ 42.6 µM); in the test with MCF7 it was 3.4 µg/mL (≈ 13.8 µM); with HeLa, 6.9 µg/mL (≈ 28 µM). For the same compound, the results for the IC50 in test [2], in test [1] and in test [3] were 7.2 µM, 15.1 µM and 50.1 µM, respectively.
With `C=C(C)C#Cc1c(C)c(OC)c(OC)c2c1OCO2` [BENZOCAMPHORIN B], the IC50 in test [1] was determined as 14.4 µM.
Regarding `C=C(CC[C@@H](C)[C@H]1CC[C@H]2C3=C(C(=O)C[C@]12C)[C@@]1(C)CC[C@@H](O)[C@@H](C)[C@@H]1C[C@@H]3O)C(C)C(=O)O` (stereo not given in full) [CAMPHORATIN B], the IC50 in test [2] came to 15.7 µM; in test [1], 32.1 µM.
Turning to `C=C(CC[C@@H](C)[C@H]1CC[C@H]2C3=C(C(=O)C[C@]12C)[C@@]1(C)CCC(=O)[C@@H](C)[C@@H]1C[C@@H]3O)C(C)C(=O)O` (stereo not given in full) [CAMPHORATIN D], the EC50 in the test with Daoy, in the test on HEp-2, with MCF7 and with HeLa was > 20 µg/mL each time. The IC50 in test [2] came out at 4.2 µM; in test [1], 22.6 µM.
For `C=C(CC[C@@H](C)[C@H]1CC[C@H]2C3=C(C(=O)C[C@]12C)[C@@]1(C)CC[C@@H](O)[C@@H](C)[C@@H]1CC3=O)C(C)C(=O)OC` (stereo not given in full) [CAMPHORATIN E], the EC50 in the test with Daoy was 5.2 µg/mL (≈ 10.7 µM); in the test with HEp-2, 7 µg/mL (≈ 14.4 µM); with MCF7, 6.6 µg/mL (≈ 13.6 µM); with HeLa, 9 µg/mL (≈ 18.6 µM).
Take `C=C(CC[C@@H](C)[C@H]1CC[C@H]2C3=C(C(=O)C[C@]12C)[C@@]1(C)CCC(=O)[C@@H](C)[C@@H]1C[C@@H]3O)C(C)C(=O)OC` (stereo not given in full) [CAMPHORATIN F]: the EC50 with Daoy worked out at 4.4 µg/mL (≈ 9.08 µM); with HEp-2 it was 3 µg/mL (≈ 6.19 µM); in the test with MCF7, 7.9 µg/mL (≈ 16.3 µM); in the test with HeLa it was 8.9 µg/mL (≈ 18.4 µM). The values for the IC50 in test [2] and in test [1] were 2.5 µM and 11.2 µM, respectively.
In the case of `C[C@H](/C=C/[C@H](C)[C@H](C)CO)[C@H]1CC[C@H]2C3=CC[C@H]4CC(=O)CC[C@]4(C)[C@H]3CC[C@]12C` [CAMPHORATIN I], the IC50 was determined as 12.7 µM in test [2] and 17.5 µM in test [1].
Regarding `C=C(CC[C@@H](C)[C@H]1CC[C@@H]2C3=C(C(=O)C[C@@]21C)[C@@]1(C)CCC(=O)[C@@H](C)[C@@H]1CC3)C(C)C(=O)OC` (stereo not given in full) [CAMPHORATIN J], the EC50 with Daoy was > 20 µg/mL; in the test on HEp-2, > 20 µg/mL; with MCF7, 8.7 µg/mL (≈ 18.6 µM); with HeLa, 11.3 µg/mL (≈ 24.1 µM). The IC50 in test [2] was 1.6 µM; in test [1], 15.8 µM.
With `CC(C)[C@@H](C)/C=C/[C@@H](C)[C@H]1CC[C@@H]2[C@]1(C)CC[C@H]1[C@]23C=C[C@]2(C[C@@H](O)CC[C@]12C)OO3` [ERGOSTEROL PEROXIDE], in test [1], the IC50 amounted to 20.3 µM.
Take `CC(C)[C@@H](C)/C=C/[C@@H](C)[C@H]1CC[C@H]2C3=CC=C4C[C@@H](O)CC[C@]4(C)[C@H]3CC[C@]12C` [ERGOSTEROL]: the figures for the IC50 in test [2] and in test [1] were 30.6 µM and 27.9 µM, respectively.
As to `C=C(CC[C@@H](C)[C@H]1CC[C@H]2C3=C(C[C@H](O)[C@]12C)[C@@]1(C)CC[C@@H](O)[C@@H](C)[C@@H]1CC3=O)C(C)C(=O)OC` (stereo not given in full) [METHYL ANTCINATE H], the EC50 in the test on Daoy, with HEp-2, in the test on MCF7 and with HeLa was > 20 µg/mL in each case. In addition, the IC50 in test [2] came to 2.5 µM; in test [1], 18.1 µM.
As to `C=C(CC[C@@H](C)[C@H]1CC[C@H]2C3=C(C(=O)C[C@]12C)[C@@]1(C)CCC(=O)[C@@H](C)[C@@H]1CC3)C(C)C(=O)OC` (stereo not given in full) [METHYLANTCINATE A], the EC50 in the test on Daoy, in the test on HEp-2, in the test with MCF7 and in the test with HeLa was > 20 µg/mL throughout. Further, the IC50 in test [2] was determined as 1.5 µM; in test [1], 16.2 µM.
For the compound `c1cc2c(cc1[C@H]1OC[C@H]3[C@@H]1CO[C@@H]3c1ccc3c(c1)OCO3)OCO2` [SESAMIN], the EC50 in the test with Daoy, with HEp-2, in the test on MCF7 and with HeLa was > 20 µg/mL throughout.
Regarding `C=C(CC[C@@H](C)[C@H]1CC[C@H]2C3=C(C(=O)C[C@]12C)[C@@]1(C)CCC(=O)[C@@H](C)[C@@H]1CC3=O)C(C)C(=O)OC` (stereo not given in full) [ZHANKUIC ACID A METHYL ESTER], the EC50 in the test with Daoy, in the test with HEp-2, in the test on MCF7 and with HeLa was > 20 µg/mL each time. Besides, the IC50 in test [2] was found to be 0.6 µM; in test [1], 8.4 µM.
Turning to `C=C(CC[C@@H](C)[C@H]1CC[C@H]2C3=C(C(=O)C[C@]12C)[C@@]1(C)CCC(=O)[C@@H](C)[C@@H]1CC3=O)C(C)C(=O)O` (stereo not given in full) [ZHANKUIC ACID A], the EC50 in the test with Daoy is > 20 µg/mL; in the test on HEp-2, 16.6 µg/mL (≈ 35.4 µM); in the test on MCF7, > 20 µg/mL; in the test with HeLa, > 20 µg/mL. The figures for the IC50 in test [2] and in test [1] were 3.6 µM and 22.1 µM, respectively.
Take `C=C(CC[C@@H](C)[C@H]1CC[C@H]2C3=C(C(=O)C[C@]12C)[C@@]1(C)CC[C@@H](O)[C@@H](C)[C@@H]1CC3=O)C(C)C(=O)O` (stereo not given in full) [ZHANKUIC ACID B]: the EC50 in the test with Daoy, in the test with HEp-2, in the test on MCF7 and in the test with HeLa was > 20 µg/mL each time. Further, in test [2], the IC50 worked out at 9.6 µM.
`C=C(CC[C@@H](C)[C@H]1CC[C@H]2C3=C(C(=O)[C@H](O)[C@]12C)[C@@]1(C)CC[C@@H](O)[C@@H](C)[C@@H]1CC3=O)C(C)C(=O)O` (stereo not given in full) [ZHANKUIC ACID C]: the EC50 with Daoy, in the test with HEp-2, in the test with MCF7 and in the test on HeLa was > 20 µg/mL throughout. For the same compound, the IC50 in test [2] turned out to be 16.2 µM.
